{
  "source": "patent US20050227220A1",
  "about": "“Compositions and Methods for Evaluating and Designing Nuclear Receptor Ligands that Modulate Co-Regulator Affinity” (priority 2002, published 2005)",
  "key": {"PPARα LBD": {"biological_target": "T1, PPARα LBD (Homo sapiens, UniProt Q07869)", "T1 construct": "made in house; host or cells: bacterial BL21-DE3, vector pRSETA", "T1 sequence (Q07869 192-468)": "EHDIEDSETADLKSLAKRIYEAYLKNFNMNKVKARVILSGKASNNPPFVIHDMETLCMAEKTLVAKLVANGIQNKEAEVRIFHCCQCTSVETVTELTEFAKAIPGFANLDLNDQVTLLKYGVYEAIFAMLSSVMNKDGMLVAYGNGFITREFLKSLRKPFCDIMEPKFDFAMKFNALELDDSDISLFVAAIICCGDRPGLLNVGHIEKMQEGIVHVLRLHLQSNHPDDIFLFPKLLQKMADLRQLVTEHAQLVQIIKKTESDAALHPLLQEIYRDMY", "assay": "FRET assay: ligand effect on CBP fragment / NCoR ID-C binding to PPAR LBD", "assay_type": "biochemical", "from_the_text": "(§1) The experimentally determined α value is the ratio of cofactor affinities in the presence and absence of a saturating concentration of ligand. This analysis permits a direct comparison of the effects of compounds, independent of cofactor concentration and differences in coregulator affinity for the individual receptors. […] 98(9): p.\n(§2) The effects of the coregulator environment on the apparent affinities and selectivities of various ligands were than examined. Experimentally determined pKs and the α values derived from the FRET assay were used to calculate the apparent affinity of the ligand for the receptor/cofactor complex (i.e. K/α).\n(§3) FIG. 5 illustrates the effect of ligands on coactivator and corepressor binding to PPAR subtypes determined by FRET."}, "PPARγ LBD": {"biological_target": "T2, PPARγ LBD (Homo sapiens, UniProt P37231)", "T2 construct": "made in house; host or cells: bacterial BL21-DE3, vector pRSETA", "T2 sequence (P37231 234-505)": "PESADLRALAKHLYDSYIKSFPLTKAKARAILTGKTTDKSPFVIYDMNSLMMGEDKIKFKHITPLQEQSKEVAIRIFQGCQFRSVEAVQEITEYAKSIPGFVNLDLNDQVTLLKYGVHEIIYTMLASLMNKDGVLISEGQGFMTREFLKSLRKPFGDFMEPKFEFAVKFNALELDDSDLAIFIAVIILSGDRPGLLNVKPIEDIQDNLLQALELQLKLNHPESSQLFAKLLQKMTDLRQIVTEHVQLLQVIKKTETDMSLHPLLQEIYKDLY", "assay": "FRET assay: ligand effect on CBP fragment / NCoR ID-C binding to PPAR LBD", "assay_type": "biochemical", "settings": "10 nM PPAR LBD", "from_the_text": "as §1, §2, §3"}, "PPARδ LBD": {"biological_target": "T3, PPARδ LBD (Homo sapiens, UniProt Q03181)", "T3 construct": "made in house; host or cells: bacterial BL21-DE3, vector pRSETA", "T3 sequence (Q03181 139-441)": "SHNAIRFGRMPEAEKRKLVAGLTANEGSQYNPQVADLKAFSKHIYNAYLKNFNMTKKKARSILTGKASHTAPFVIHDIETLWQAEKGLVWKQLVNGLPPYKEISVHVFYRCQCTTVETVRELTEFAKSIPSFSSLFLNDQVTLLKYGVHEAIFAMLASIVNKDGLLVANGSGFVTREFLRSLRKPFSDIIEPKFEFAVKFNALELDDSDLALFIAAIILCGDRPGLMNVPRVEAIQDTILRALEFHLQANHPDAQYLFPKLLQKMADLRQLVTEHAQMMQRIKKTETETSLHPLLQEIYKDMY", "assay": "FRET assay: ligand effect on CBP fragment / NCoR ID-C binding to PPAR LBD", "assay_type": "biochemical", "from_the_text": "as §1, §2, §3"}, "full length human PPARα": {"biological_target": "T4, full length human PPARα (Homo sapiens, UniProt Q07869)", "T4 construct": "expressed in transfected cells; host or cells: CV-1 cells, vector pVP16 (Clonetech)", "T4 sequence (Q07869 1-468)": "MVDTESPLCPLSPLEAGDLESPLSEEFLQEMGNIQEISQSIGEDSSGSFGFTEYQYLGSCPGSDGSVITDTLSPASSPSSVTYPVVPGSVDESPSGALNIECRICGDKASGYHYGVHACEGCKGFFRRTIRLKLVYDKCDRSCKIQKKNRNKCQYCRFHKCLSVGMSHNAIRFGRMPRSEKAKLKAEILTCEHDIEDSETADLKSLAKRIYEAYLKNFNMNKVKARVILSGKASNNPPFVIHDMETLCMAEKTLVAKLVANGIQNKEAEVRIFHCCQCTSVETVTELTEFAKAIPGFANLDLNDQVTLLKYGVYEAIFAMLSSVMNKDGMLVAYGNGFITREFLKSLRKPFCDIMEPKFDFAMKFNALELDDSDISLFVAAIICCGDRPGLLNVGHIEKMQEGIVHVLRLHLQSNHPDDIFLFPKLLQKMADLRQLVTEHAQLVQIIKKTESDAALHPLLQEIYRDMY", "assay": "Mammalian two-hybrid assay (CV-1 cells)", "assay_type": "cell-based", "settings": "VP16-PPARα, GAL4-NCoR (2239-2300), result in words", "from_the_text": "(§4) Mammalian two-hybrid assays were used to examine the ability of the tyrosine-based class of PPAR ligands to promote association or dissociation of the co-activator CBP and the corepressor NCoR in the context of a cellular environment. The assays for the three PPAR subtypes used full length human PPARα, PPARγ2 or PPARδ fused to the activation domain of VP16 and previously identified interaction domains of CBP and NCoR fused to the DNA binding domain of GAL4.\n(§5) Expression plasmids for the VP16-human PPAR constructs were prepared by inserting amplified cDNAs encoding full length PPARα, PPARγ2 and PPARδ fused to amino acids 410-490 of the VP16 viral activation domain, into the expression vector pVP16 (Clonetech). […] The reporter plasmid was (UAS)5-tk-SPAP, and the internal control plasmid for all transfections was β-galactosidase expression vector (pCH110, Amersham).\n(§6) CV-1 cells were maintained in culture in DME high glucose medium supplemented with 10% FBS and 2 mM glutamine in a humidified incubator (5% CO2 in air) at 37° C. Cells were harvested 72 hours prior to experimental use and placed in phenol red free D-MEM/F-12 medium with 15 mM HEPES supplemented with 10% charcoal/dextran-treated FBS (HyClone, Logan, Utah). The cells were harvested and seeded at 2.0×10^4 cell per well in a 96-well plate the day prior to transfection. Cells were transfected for 16 hr using Lipofectamine (Life Technologies, Inc., Rockville, Md.) essentially according to the manufacturer's instructions. The total amount of DNA transfected into each well was 80 ng. Transfection mixtures contained 8 ng VP16-PPAR plasmid, 8 ng SPAP reporter, 25 ng of pCH110(β-galactosidase) control plasmid, 35 ng of pBluescript II KS+ (Clonetech) and 4 ng of either coactivator or corepressor plasmid. Transfection quantities for full length PPAR and cofactor plasmids were optimized to generate a signal that was half of the maximal activation. These conditions would allow for dissociation or association to be experimentally determined for each ligand evaluated. Stock solutions of drugs were prepated in DMSO and dilutions were made in phenol red-free D-MEM/F-12 with 15 mM HEPES supplemented with 10% charcoal stripped, delipidated, heat inactivated (62° C. for 35 min) bovine calf serum (Sigma, St. Louis, Mo.) such that the final concentration of DMSO was 0.1%. Transfection mixtures were aspirated and 100 μl, of medium containing drug was added to each well."}, "full length human PPARδ": {"biological_target": "T5, full length human PPARδ (Homo sapiens, UniProt Q03181)", "T5 construct": "expressed in transfected cells; host or cells: CV-1 cells, vector pVP16 (Clonetech)", "T5 sequence (Q03181 whole entry, the tested form may be a part)": "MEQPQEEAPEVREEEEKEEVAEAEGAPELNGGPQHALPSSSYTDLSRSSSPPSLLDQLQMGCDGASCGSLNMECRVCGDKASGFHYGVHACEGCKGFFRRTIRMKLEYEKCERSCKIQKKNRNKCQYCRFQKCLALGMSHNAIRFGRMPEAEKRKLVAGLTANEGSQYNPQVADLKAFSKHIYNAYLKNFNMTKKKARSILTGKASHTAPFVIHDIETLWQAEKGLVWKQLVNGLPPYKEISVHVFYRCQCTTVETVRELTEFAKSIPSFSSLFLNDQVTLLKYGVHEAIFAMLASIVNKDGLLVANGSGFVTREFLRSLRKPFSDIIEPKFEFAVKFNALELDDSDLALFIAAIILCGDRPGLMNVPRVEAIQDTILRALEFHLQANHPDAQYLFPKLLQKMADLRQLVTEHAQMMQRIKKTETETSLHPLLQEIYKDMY", "assay": "Mammalian two-hybrid assay (CV-1 cells)", "assay_type": "cell-based", "settings": "VP16-PPARδ, GAL4-NCoR (2239-2300), result in words", "from_the_text": "as §4, §5, §6"}, "PPARδ LBD / RXRα LBD": {"biological_target": "T6, PPARδ LBD / RXRα LBD (Homo sapiens, UniProt Q03181)", "T6 sequence (Q03181 139-441)": "T3 sequence (Q03181 139-441)", "T6 sequence (P19793 225-462 partner limits assumed)": "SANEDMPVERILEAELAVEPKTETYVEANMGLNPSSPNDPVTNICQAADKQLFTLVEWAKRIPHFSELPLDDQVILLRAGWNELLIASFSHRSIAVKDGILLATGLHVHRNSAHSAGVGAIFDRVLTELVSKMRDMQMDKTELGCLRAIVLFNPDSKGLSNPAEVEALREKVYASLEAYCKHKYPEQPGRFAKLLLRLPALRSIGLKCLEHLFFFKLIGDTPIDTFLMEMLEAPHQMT", "assay": "FRET assay: ligand effect on RXRα LBD binding to PPAR LBD", "settings": "10 nM PPAR LBD, 4 concentrations of RXR"}, "[1]": {"biological_target": "PPARα ligand binding domain (Homo sapiens, UniProt Q07869)", "assay": "Surface plasmon resonance: effect of compounds on co-repressor peptide binding to PPAR LBD", "settings": "SPR equilibrium response, immobilized biotinylated peptides", "method": "(§7) A surface plasmon resonance assay was used to further characterize the effects of PPAR ligands binding of peptides derived from the co-repressors NCOR and SMRT to the PPAR subtypes. Each peptide was biotinylated and immobilized on separate flow cells of a BlAcore sensor chip. Using a BIAcore instrument, fixed concentrations of each PPAR subtype ligand binding domain were incubated with varied concentrations of test compounds and injected over the peptide-derivatized sensor chip to determine the equilibrium binding response of the receptors for the immobilized peptides.\n(§8) The binding of co-activator and co-repressor peptides with PPAR ligand binding domains and the effects of compounds on these interactions were determined by surface plasmon resonance using the Biacore 3000. Approximately 300 resonance units (RU) of biotinylated peptides were immobilized to individual flow cells of a streptavidin chip. All experiments were conducted at 25° C. at a flow rate of 10 μl/minute with a buffer containing 10 mM HEPES, pH 7.4, containing 0.15 M NaCl, 3 mM EDTA and 0.005% polysorbate-20. […] Binding was determined by measuring the equilibrium binding response 10 seconds before the end of the association phase minus the response from a flow cell with no immobilized peptide.\n(§9) Each point is the average of three injections."}, "[2]": {"biological_target": "PPARγ ligand binding domain (Homo sapiens, UniProt P37231)", "sequence (P37231 234-505)": "as the sequence (P37231 234-505) above", "assay": "Surface plasmon resonance: effect of compounds on co-repressor peptide binding to PPAR LBD", "settings": "SPR equilibrium response, immobilized biotinylated peptides", "method": "as §7, §8, §9"}, "[3]": {"settings": "α = ratio of cofactor affinities in presence and absence of saturating ligand"}},
  "note": "“Also recorded” adds a separate entry of the source.",
  "data": [
    {"smiles": "COC(=O)c1ccccc1N[C@@H](Cc1ccc(OCCc2nc(-c3ccccc3)oc2C)cc1)C(=O)O", "note": "[GW7845]", "values": [
      {"measurement": "effect on apparent affinity of PPARα for the co-activator fragment from CBP", "setting": "PPARα LBD; 10 nM PPAR LBD, CBP (57-454)", "result": "increased the apparent affinity"},
      {"measurement": "effect on affinity of PPARα for the co-repressor peptide", "setting": "PPARα LBD; 10 nM PPAR LBD, NCoR ID-C", "result": "enhanced the binding; also recorded: slightly increase the affinity"},
      {"measurement": "alpha value for the association of PPARα and NCoR", "setting": "PPARα LBD; [3]", "result": 0.16},
      {"measurement": "effect on apparent affinity of PPARγ for the co-activator fragment from CBP", "setting": "PPARγ LBD; CBP (57-454)", "result": "increased the apparent affinity"},
      {"measurement": "effect on affinity of PPARγ for the co-repressor peptide", "setting": "PPARγ LBD; NCoR ID-C", "result": "decrease the affinity"},
      {"measurement": "effect on apparent affinity of PPARδ for the co-activator fragment from CBP", "setting": "PPARδ LBD; 10 nM PPAR LBD, CBP (57-454)", "result": "increased the apparent affinity"},
      {"measurement": "log α (NCoR association with PPARδ)", "setting": "PPARδ LBD; [3]", "result": 0.14},
      {"measurement": "effect on PPARα interaction with NCoR", "setting": "full length human PPARα", "result": "neither GW1929 nor GW7845 were able to promote association with NCoR"},
      {"measurement": "effect on PPARδ interaction with NCoR", "setting": "full length human PPARδ", "result": "no significant association"},
      {"measurement": "promotion of association of PPARδ with RXR", "setting": "PPARδ LBD / RXRα LBD", "result": "most effective"},
      {"measurement": "effect on binding of PPARα LBD to the NCOR and SMRT co-repressor peptides", "setting": "[1]", "result": "increase the binding"},
      {"measurement": "effect on binding of PPARγ LBD to the NCOR- and SMRT-derived co-repressor peptides", "setting": "[2]", "result": "decreased the binding"}
    ]}
  ]
}
